Drawing on ChEMBL document CHEMBL4364328, “Inhibition of ACSS2 for Treatment of Cancer and Neuropsychiatric Diseases” (ACS Med Chem Lett, 2019), this text covers IC50 for 11 compounds.

The term IC50 denotes the concentration that gives 50% inhibition.

The assay deals with Acetyl-coenzyme A synthetase, cytoplasmic (Homo sapiens, UniProt Q9NR19). Nature of the assay: Inhibition of ACSS2 in human MDA-MB-468 cells assessed as 13C-acetate incorporation incubated for 5 hrs measured under hypoxic conditions by LCMS analysis. The assay is classed as cell-based.
Chain of Acetyl-coenzyme A synthetase, cytoplasmic (Q9NR19 whole entry): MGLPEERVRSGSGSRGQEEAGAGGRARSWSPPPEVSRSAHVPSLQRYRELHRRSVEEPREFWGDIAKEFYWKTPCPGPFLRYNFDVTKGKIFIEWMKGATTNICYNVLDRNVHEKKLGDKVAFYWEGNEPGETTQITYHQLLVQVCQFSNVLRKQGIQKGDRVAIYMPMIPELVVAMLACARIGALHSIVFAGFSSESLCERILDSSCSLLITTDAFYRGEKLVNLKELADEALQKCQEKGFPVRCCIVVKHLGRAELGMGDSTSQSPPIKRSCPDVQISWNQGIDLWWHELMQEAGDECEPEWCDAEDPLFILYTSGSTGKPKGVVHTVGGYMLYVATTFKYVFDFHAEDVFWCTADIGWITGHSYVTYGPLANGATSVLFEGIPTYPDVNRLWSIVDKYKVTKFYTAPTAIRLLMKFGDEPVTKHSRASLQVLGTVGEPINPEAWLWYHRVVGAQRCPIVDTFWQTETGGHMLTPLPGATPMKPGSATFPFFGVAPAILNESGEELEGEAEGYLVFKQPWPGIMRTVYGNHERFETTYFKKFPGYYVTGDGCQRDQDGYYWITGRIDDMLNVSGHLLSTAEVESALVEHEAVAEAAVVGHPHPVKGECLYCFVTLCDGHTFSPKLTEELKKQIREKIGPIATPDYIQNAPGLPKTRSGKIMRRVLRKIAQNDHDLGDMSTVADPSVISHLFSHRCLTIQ
For `COc1ccc(N2N=C(C)C(C(=O)Nc3cccc(-c4ccco4)c3)C2=O)cn1` (stereo unspecified), the IC50 is 3.9 nM.
For `CC1=NN(c2ccc(OC(F)F)cc2)C(=O)C1C(=O)Nc1cccc(C(C)(F)F)c1` (stereo unspecified) the value was 2.66 nM; for `COc1ccc(N2N=C(C)C(C(=O)Nc3cccc(C(C)(F)F)c3)C2=O)cc1` (stereo unspecified), 4.5 nM.
For `COc1ccc(N2N=C(C)C(C(=O)Nc3cccc(C(C)(F)F)c3)C2=O)cc1OC` (stereo unspecified) the value was 1 nM.
For the compound `CC1=NN(c2ccccc2)C(=O)C1C(=O)Nc1cccc(C(C)(F)F)c1` (stereo unspecified), the IC50 was determined as 4 nM.
With `CCC(F)(F)c1cccc(NC(=O)C2C(=O)N(c3ccc(OC)cc3)N=C2C)c1` (stereo unspecified), the IC50 was determined as 0.463 nM.
For `COc1ccc(N2N=C(C)C(C(=O)Nc3cccc(-c4ccco4)c3)C2=O)cc1` (stereo unspecified) the value was 3.2 nM; for `CC1=NN(c2ccc(OC(F)F)c(-c3cccnc3)c2)C(=O)C1C(=O)Nc1cccc(C(C)(F)F)c1` (stereo unspecified), 0.33 nM; for `COc1ccc(N2N=C(C)C(C(=O)Nc3cccc(C(C)(F)F)c3)C2=O)cn1` (stereo unspecified), 5 nM.
On to `COC(=O)c1cccc(N2N=C(C)C(C(=O)Nc3cccc(-c4ccco4)c3)C2=O)c1` (stereo unspecified), for which the IC50 came out at 2.1 nM.
The value for `COc1ccc(N2N=C(C)C(C(=O)Nc3cccc(C(C)(F)F)c3)C2=O)cc1-c1ncco1` (stereo unspecified) was 1.1 nM.
